In patent US7960391B2, “Heterocyclylethylbenzamide derivatives” (Bayer Cropscience AG, priority 2005, dated 2011):

Experiments:
[1] = tested on: Alternaria brassicae; test: In vivo test on Alternaria brassicae (leaf spot of crucifers); settings: for effectiveness on Alternaria brassicae: 330 ppm, comparison compounds of WO 01/11965
Procedure: In Vivo Test on Alternaria brassicae (Leaf Spot of Crucifers)
The active ingredient tested is prepared by potter homogenisation in a concentrated suspension type formulation at 100 g/l. This suspension is then diluted with water to obtain the desired active material concentration.
Radish plants (Pernot variety) in starter cups, sown on a 50/50 peat soil-pozzolana substrate and grown at 18-20° C., are treated at the cotyledon stage by spraying with the aqueous suspension described above.
Plants, used as controls, are treated with an aqueous solution not containing the active material.
After 24 hours, the plants are contaminated by spraying them with an aqueous suspension of Alternaria brassicae spores (40,000 spores per cm^3). The spores are collected from a 12-13-day-old culture.
The contaminated radish plants are incubated for 6-7 days at about 18° C., under a humid atmosphere.
Grading is carried out 6 to 7 days after the contamination, in comparison with the control plants.

[2] = tested on: Botrytis cinerea; test: Effectiveness on Botrytis cinerea; assay type: in vivo; settings: 330 ppm; comparison compounds of WO 01/11965
[3] = tested on: Peronospora parasitica; test: Efficacy against Peronospora parasitica; assay type: in vivo; settings: 330 ppm; comparison compound of WO 01/11965

SMILES	effectiveness on Alternaria brassicae [1]	effectiveness on Botrytis cinerea [2]	efficacy against Peronospora parasitica [3]	good (at least 50%) [protection] versus control plants ([1]; radish plants (Pernot variety), preventive spray 24 hours before contamination, dose 500 ppm, grading 6 to 7 days after contamination)
CNC(=O)C(Cc1ncc(C(F)(F)F)cc1Cl)NC(=O)c1ccc(-c2ccccc2)cc1 (stereo not shown) [compound 316, N-{1-methylcarbamoyl-2-[3-chloro-5-(trifluoromethyl)-2-pyridinyl]-ethyl}-4-phenylbenzamide]	poor effectiveness	zero effectiveness	–	–
CCNC(=O)C(Cc1ncc(C(F)(F)F)cc1Cl)NC(=O)c1ccccc1Br (stereo not shown) [compound 310, N-{1-ethylcarbamoyl-2-[3-chloro-5-(trifluoromethyl)-2-pyridinyl]ethyl}-2-bromobenzamide]	–	zero effectiveness	–	–
CCNC(=O)C(Cc1ncc(C(F)(F)F)cc1Cl)NC(=O)c1cccc([N+](=O)[O-])c1 (stereo not shown) [compound 307, N-{1-ethylcarbamoyl-2-[3-chloro-5-(trifluoromethyl)-2-pyridinyl]ethyl}-3-nitrobenzamide]	poor effectiveness	zero effectiveness	–	–
O=C(Cc1cccs1)NCc1ncc(C(F)(F)F)cc1Cl [compound 101, N-{[3-chloro-5-(trifluoromethyl)-2-pyridinyl]methyl}-5-thienylacetamide]	poor efficacy	no efficacy	no efficacy	–
CNC(=O)C(Cc1ncc(C(F)(F)F)cc1Cl)NC(=O)c1ccccc1 (stereo not shown) [compound 314, N-{1-methylcarbamoyl-2-[3-chloro-5-(trifluoromethyl)-2-pyridinyl]ethyl}-benzamide]	–	zero effectiveness	–	–
CNC(=O)C(Cc1ncc(C(F)(F)F)cc1Cl)NC(=O)c1ccc(OC)cc1 (stereo not shown) [compound 315, N-{1-methylcarbamoyl-2-[3-chloro-5-(trifluoromethyl)-2-pyridinyl]ethyl}-4-methoxybenzamide]	–	zero effectiveness	–	–
CCNC(=O)C(Cc1ncc(C(F)(F)F)cc1Cl)NC(=O)c1ccccc1 (stereo not shown) [compound 304, N-{1-ethylcarbamoyl-2-[3-chloro-5-(trifluoromethyl)-2-pyridinyl]-ethyl}-benzamide]	–	zero effectiveness	–	–
O=C(NCCc1ncc(Br)cn1)c1ccccc1C(F)(F)F [Compound A-1, N-[2-(5-bromopyrimidin-2-yl)ethyl]-2-(trifluoromethyl)benzamide]	–	–	–	at least 50%
CCNC(=O)C(Cc1ncc(C(F)(F)F)cc1Cl)NC(=O)c1ccc(Cl)cc1 (stereo not shown) [compound 306, N-{1-ethylcarbamoyl-2-[3-chloro-5-(trifluoromethyl)-2-pyridinyl]ethyl}-4-chlorobenzamide]	–	zero effectiveness	–	–
